Laboratory results from patent US11512268B2, “Storage-stable enzyme preparations, their production and use” (BASF SE, priority 2017, dated 2022).

Columns and labels:
[1] = biological target: T1, Lipolase (Thermomyces lanuginosus, UniProt O59952); assay: storage stability of lipase (Lipolase activity, pNitrophenol-valerate substrate) in liquid formulations at 37° C.; format: biochemical, Thermomyces lanuginosa; settings: Lipolase 0.4 wt %, storage at 37° C.
T1 construct: purchased Sigma-Aldrich
T1 sequence (O59952 23-291): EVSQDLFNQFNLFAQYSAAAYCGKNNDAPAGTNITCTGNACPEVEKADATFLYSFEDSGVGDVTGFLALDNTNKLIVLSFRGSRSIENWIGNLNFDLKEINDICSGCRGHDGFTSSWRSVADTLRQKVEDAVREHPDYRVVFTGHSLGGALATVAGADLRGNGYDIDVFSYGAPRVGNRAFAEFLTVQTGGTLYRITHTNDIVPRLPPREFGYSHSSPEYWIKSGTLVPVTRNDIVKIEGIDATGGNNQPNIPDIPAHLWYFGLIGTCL

[2] = biological target: T2, Savinase (Lederbergia lenta, UniProt P29600); assay: storage stability of protease (Savinase activity, Suc-AAPF-pNA substrate) in liquid formulations at 37° C.; format: biochemical; settings: Savinase 16.0 L 0.5 wt %, storage at 37° C.
T2 construct: purchased Sigma-Aldrich
T2 sequence (P29600 1-269): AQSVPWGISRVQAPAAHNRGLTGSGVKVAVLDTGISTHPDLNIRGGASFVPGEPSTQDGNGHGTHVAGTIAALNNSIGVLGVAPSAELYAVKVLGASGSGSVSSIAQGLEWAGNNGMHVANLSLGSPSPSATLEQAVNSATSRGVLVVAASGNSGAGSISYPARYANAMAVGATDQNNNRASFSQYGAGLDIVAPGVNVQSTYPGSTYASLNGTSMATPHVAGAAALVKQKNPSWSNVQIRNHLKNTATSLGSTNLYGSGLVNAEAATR

C[N+](C)(C)CCO.C[N+](C)(C)CCO.C[N+](C)(C)CCO.O=C([O-])CC(O)(CC(=O)[O-])C(=O)[O-] [C-(A.18)]
lipase activity ([1]; base formulation I., component (a) 2.5 wt %, 1 d): 91% | lipase activity ([1]; base formulation I., component (a) 2.5 wt %, 3 d): 84% | lipase activity ([1]; base formulation I., component (a) 2.5 wt %, 6 d): 72% | lipase activity ([1]; base formulation I., component (a) 2.5 wt %, 10 d): 55% | lipase activity ([1]; base formulation I., component (a) 2.5 wt %, 15 d): 45% | lipase activity ([1]; base formulation I., component (a) 2.5 wt %, 20 d): 39% | lipase activity ([1]; base formulation I., component (a) 2.5 wt %, 25 d): 32% | lipase activity ([1]; base formulation I., component (a) 2.5 wt %, 30 d): 29% | lipase activity ([1]; base formulation I., component (a) 2.5 wt %, T0): 98% | lipase activity ([1]; base formulation IV., component (a) 4.0 wt %, 1 d): 91% | lipase activity ([1]; base formulation IV., component (a) 4.0 wt %, 3 d): 84% | lipase activity ([1]; base formulation IV., component (a) 4.0 wt %, 6 d): 72% | lipase activity ([1]; base formulation IV., component (a) 4.0 wt %, 10 d): 58% | lipase activity ([1]; base formulation IV., component (a) 4.0 wt %, 15 d): 49% | lipase activity ([1]; base formulation IV., component (a) 4.0 wt %, 20 d): 46% | lipase activity ([1]; base formulation IV., component (a) 4.0 wt %, 25 d): 39% | lipase activity ([1]; base formulation IV., component (a) 4.0 wt %, 30 d): 35% | lipase activity ([1]; base formulation IV., component (a) 4.0 wt %, T0): 95% | lipase activity ([1]; base formulation VI., component (a) 4.0 wt %, 1 d): 90% | lipase activity ([1]; base formulation VI., component (a) 4.0 wt %, 3 d): 83% | lipase activity ([1]; base formulation VI., component (a) 4.0 wt %, 6 d): 75% | lipase activity ([1]; base formulation VI., component (a) 4.0 wt %, 10 d): 58% | lipase activity ([1]; base formulation VI., component (a) 4.0 wt %, 15 d): 50% | lipase activity ([1]; base formulation VI., component (a) 4.0 wt %, 20 d): 48% | lipase activity ([1]; base formulation VI., component (a) 4.0 wt %, 25 d): 37% | lipase activity ([1]; base formulation VI., component (a) 4.0 wt %, 30 d): 32% | lipase activity ([1]; base formulation VI., component (a) 4.0 wt %, T0): 96% | protease activity ([2]; base formulation III., component (a) 2.5 wt %, 1 d): 94% | protease activity ([2]; base formulation III., component (a) 2.5 wt %, 3 d): 85% | protease activity ([2]; base formulation III., component (a) 2.5 wt %, 6 d): 72% | protease activity ([2]; base formulation III., component (a) 2.5 wt %, 10 d): 54% | protease activity ([2]; base formulation III., component (a) 2.5 wt %, 15 d): 43% | protease activity ([2]; base formulation III., component (a) 2.5 wt %, 20 d): 35% | protease activity ([2]; base formulation III., component (a) 2.5 wt %, 25 d): 28% | protease activity ([2]; base formulation III., component (a) 2.5 wt %, 30 d): 14% | protease activity ([2]; base formulation III., component (a) 2.5 wt %, T0): 94% | protease activity ([2]; base formulation V., component (a) 4.0 wt %, 1 d): 90% | protease activity ([2]; base formulation V., component (a) 4.0 wt %, 3 d): 83% | protease activity ([2]; base formulation V., component (a) 4.0 wt %, 6 d): 64% | protease activity ([2]; base formulation V., component (a) 4.0 wt %, 10 d): 50% | protease activity ([2]; base formulation V., component (a) 4.0 wt %, 15 d): 40% | protease activity ([2]; base formulation V., component (a) 4.0 wt %, 20 d): 33% | protease activity ([2]; base formulation V., component (a) 4.0 wt %, 25 d): 25% | protease activity ([2]; base formulation V., component (a) 4.0 wt %, 30 d): 16% | protease activity ([2]; base formulation V., component (a) 4.0 wt %, T0): 83%
